# Measured values from patent US20160083397A1, “PARTHENOLIDE DERIVATIVES AND THEIR MODULATION OF PROCESSES CONTROLLED BY REGULATED TRANSLATION” (THE BOARD OF TRUSTEES OF THE UNIVERSITY OF ARKANSAS, priority 2013, published 2016).
# Where “and” joins values, the source holds several entries; their conditions need not be identical. Identical values can stand only once.
# Key:
# NCI-H226 = conditions: for GI50: NCI-H226, Lung Cancer
# NCI-H522 = conditions: for GI50: NCI-H522, Lung Cancer
# CAKI-1 = conditions: for GI50: CAKI-1, Renal Cancer
# KM12 = conditions: for GI50: KM12, Colon Cancer
# NCI-H460 = conditions: for GI50: NCI-H460, Lung Cancer
# HOP-62 = conditions: for GI50: HOP-62, Lung Cancer
# DU-145 = conditions: for GI50: DU-145, Prostate Cancer
# UACC-257 = conditions: for GI50: UACC-257, Melanoma
# M14 = conditions: for GI50: M14, Melanoma
# SK-MEL-28 = conditions: for GI50: SK-MEL-28, Melanoma
# MDA-MB-231/ATCC = conditions: for GI50: MDA-MB-231/ATCC, Breast Cancer
# MALME-3M = conditions: for GI50: MALME-3M, Melanoma
# MCF7 = conditions: for GI50: MCF7, Breast Cancer
# SK-MEL-2 = assay: NCI 60-cell line five dose screen: SK-MEL-2; conditions: SK-MEL-2, Melanoma
# CCRF-CEM = conditions: for GI50: CCRF-CEM, Leukemia
# OVCAR-4 = conditions: for GI50: OVCAR-4, Ovarian Cancer
# HCT-116 = conditions: for GI50: HCT-116, Colon Cancer
# SR = conditions: for GI50: SR, Leukemia
# MOLT-4 = conditions: for GI50: MOLT-4, Leukemia
# SF-295 = conditions: for GI50: SF-295, CNS Cancer
# RPMI-8226 = conditions: for GI50: RPMI-8226, Leukemia
# U251 = conditions: for GI50: U251, CNS Cancer
# PC-3 = conditions: for GI50: PC-3, Prostate Cancer
# T-47D = conditions: for GI50: T-47D, Breast Cancer
# BT-549 = conditions: for GI50: BT-549, Breast Cancer
# TK-10 = assay: NCI 60-cell line five dose screen: TK-10; conditions: TK-10, Renal Cancer
# HCC-2998 = assay: NCI 60-cell line five dose screen: HCC-2998; conditions: HCC-2998, Colon Cancer
# RXF 393 = assay: NCI 60-cell line five dose screen: RXF 393; conditions: RXF 393, Renal Cancer
substance,measurement,setting,value
13-(2-iodoimidazole)parthenolide [PNR-5-65],CC50,NCI-H226,62.3 µM
same,GI50,NCI-H226,15.4 µM
same,CC50,NCI-H522,6.34 µM
same,GI50,NCI-H522,1.77 µM and 1.71 µM
same,CC50,CAKI-1,49.5 µM
same,GI50,CAKI-1,6.61 µM
same,CC50,KM12,> 100 µM
same,GI50,KM12,43.2 µM
same,CC50,NCI-H460,> 100 µM
same,GI50,NCI-H460,30.1 µM
same,CC50,HOP-62,> 100 µM
same,GI50,HOP-62,47.4 µM
same,CC50,DU-145,68.3 µM
same,GI50,DU-145,18.8 µM
same,CC50,UACC-257,53.9 µM
same,GI50,UACC-257,12 µM
same,CC50,M14,65.6 µM
same,GI50,M14,16.5 µM
same,CC50,SK-MEL-28,73 µM
same,GI50,SK-MEL-28,16.1 µM
same,CC50,MDA-MB-231/ATCC,59.6 µM
same,GI50,MDA-MB-231/ATCC,16.4 µM
same,CC50,MALME-3M,62.7 µM
same,GI50,MALME-3M,10.9 µM
same,CC50,MCF7,> 100 µM
same,GI50,MCF7,9.79 µM
same,GI50,SK-MEL-2,18.6 µM
same,CC50,SK-MEL-2; read-out: LC50,66.1 µM
same,CC50,CCRF-CEM,79.6 µM
same,GI50,CCRF-CEM,6.13 µM
same,CC50,OVCAR-4,60 µM
same,GI50,OVCAR-4,13.2 µM
same,CC50,HCT-116,49 µM
same,GI50,HCT-116,11.8 µM
same,CC50,SR,> 100 µM
same,GI50,SR,13.6 µM
same,CC50,MOLT-4,97.9 µM
same,GI50,MOLT-4,19.6 µM
same,CC50,SF-295,> 100 µM
same,GI50,SF-295,32.1 µM
same,CC50,RPMI-8226,> 100 µM
same,GI50,RPMI-8226,17 µM
same,CC50,U251,> 100 µM
same,GI50,U251,36.7 µM
same,CC50,PC-3,> 100 µM
same,GI50,PC-3,23.1 µM
same,CC50,T-47D,54.3 µM
same,GI50,T-47D,9.88 µM
same,CC50,BT-549,55.3 µM
same,GI50,BT-549,15.9 µM
(E)-13-(3-thiopheno)parthenolide [PNR-5-53],CC50,NCI-H226,> 100 µM
same,GI50,NCI-H226,30.2 µM
same,CC50,NCI-H522,59.7 µM
same,GI50,NCI-H522,5.44 µM
same,CC50,CAKI-1,> 100 µM
same,GI50,CAKI-1,30.9 µM
same,CC50,UACC-62,76.6 µM
same,GI50,"UACC-62; UACC-62, Melanoma",13.8 µM
same,CC50,ACHN,> 100 µM
same,GI50,TK-10,34.7 µM
same,CC50,TK-10; read-out: LC50,> 100 µM
same,CC50,KM12,86.7 µM
same,GI50,KM12,20.4 µM
same,CC50,NCI-H460,> 100 µM
same,GI50,NCI-H460,29.3 µM
same,CC50,HOP-62,> 100 µM
same,GI50,HOP-62,35.8 µM
same,CC50,DU-145,> 100 µM
same,GI50,DU-145,25.7 µM
same,CC50,UACC-257,> 100 µM
same,GI50,UACC-257,16.6 µM
same,CC50,M14,> 100 µM
same,GI50,M14,20.5 µM
same,GI50,HCC-2998,33.8 µM
same,CC50,HCC-2998; read-out: LC50,> 100 µM
same,CC50,SK-MEL-28,> 100 µM
same,GI50,SK-MEL-28,29.4 µM
same,CC50,MDA-MB-231/ATCC,81.8 µM
same,GI50,MDA-MB-231/ATCC,16 µM
same,CC50,MALME-3M,> 100 µM
same,GI50,MALME-3M,22.5 µM
same,CC50,MCF7,> 100 µM
same,GI50,MCF7,20 µM
same,CC50,CCRF-CEM,> 100 µM
same,GI50,CCRF-CEM,19.1 µM
same,CC50,OVCAR-4,> 100 µM
same,GI50,OVCAR-4,24.3 µM
same,CC50,HCT-116,> 100 µM
same,GI50,HCT-116,28.3 µM
same,CC50,SR,> 100 µM
same,GI50,SR,20.7 µM
same,CC50,MOLT-4,> 100 µM
same,GI50,MOLT-4,25.7 µM
same,CC50,SF-295,> 100 µM
same,GI50,SF-295,28.5 µM
same,CC50,RPMI-8226,> 100 µM
same,GI50,RPMI-8226,19.7 µM
same,CC50,U251,> 100 µM
same,GI50,U251,21.7 µM
same,CC50,PC-3,> 100 µM
same,GI50,PC-3,22.7 µM
same,CC50,T-47D,> 100 µM
same,GI50,T-47D,29.5 µM
same,GI50,RXF 393,18.1 µM
same,CC50,RXF 393; read-out: LC50,> 100 µM
same,CC50,BT-549,88.2 µM
same,GI50,BT-549,20.1 µM
